Data taken from paper PMC10956426, “Lipid-Binding Regions within PKC-Related Serine/Threonine Protein Kinase N1 (PKN1) Required for Its Regulation” (Biochemistry, 2024).

Target: T1, PKN1-(C2), PKN1-(C2)-(342–605) (Rattus norvegicus, UniProt Q63433)
T1 construct: predominantly trimer
Assay: intrinsic tryptophan fluorescence quenching, Scatchard
Type: binding
Settings: 3 lipids per trimer, 20 mM phosphate pH 7.4, 25 mM NaCl, 25 °C, sonicated vesicles
From the text: intrinsic tryptophan fluorescence quenching, Scatchard on PKN1-(C2), PKN1-(C2)-(342–605)

[1] = type I (high-affinity) site of a biphasic curve

T1 sequence (Q63433 342-605): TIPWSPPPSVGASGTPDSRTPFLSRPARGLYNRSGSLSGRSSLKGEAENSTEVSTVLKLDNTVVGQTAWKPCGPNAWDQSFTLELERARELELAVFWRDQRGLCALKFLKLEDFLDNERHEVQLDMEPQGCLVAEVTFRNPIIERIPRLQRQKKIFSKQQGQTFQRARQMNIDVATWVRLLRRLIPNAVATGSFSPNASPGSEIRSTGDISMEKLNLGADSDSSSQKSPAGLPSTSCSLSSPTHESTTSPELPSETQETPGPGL

| Substance | Kd [1] | Kd (one class of sites) |
| --- | --- | --- |
| cardiolipin | 1000 ± 600 nM |  |
| phosphatidylcholine |  | 100 nM |
| phosphatidylserine |  | 200 nM |
| phosphatidic acid | 300 nM |  |
